One may read the IC50 as the concentration that inhibits the measured activity by half.

Structures are written as SMILES.

In the assay the target is human DPP1 enzyme (Homo sapiens (Human), UniProt P53634). As to the kind of experiment: Human DPP1 Enzyme IC50 Assay. The conditions noted are these: recombinant human DPP1 activated with cathepsin L, H-Gly-Arg-AMC substrate, 10 min pre-incubation at 37° C., MES pH 6.0. The format is biochemical. The protocol: Recombinant human DPP1 enzyme (R&D Systems; Minneapolis, MN) was first proteolytically processed into its mature form using recombinant human cathepsin L (R&D Systems) in a buffer consisting of 20 mM citric acid pH 4.5, 150 mM NaCl, 1 mM EDTA and 10 mM DTT. Test articles were applied to activated human DPP1 enzyme in Assay Buffer (25 mM MES pH 6.0, 50 mM NaCl, 5 mM DTT) in a total reaction volume of 125 μL. 25 μL of compound in Assay Buffer plus 5% DMSO was first added to 50 μL of activated human DPP1 enzyme at a concentration of 1 ng/μL and allowed to pre-incubate for 10 minutes at 37° C. after which 50 μL of 1000 μM H-Gly-Arg-AMC substrate (Bachem; St. Torrance, CA) was added, giving final substrate concentration of 400 µM and a final DMSO concentration of 1%. Substrate cleavage was measured for 90 minutes at 37° C., with fluorescence at Excitation/Emission 350/450 nm measured every 5 minutes. DPP1 concentration was interpolated based on its activity relative to a standard curve of activated human recombinant DPP1 enzyme. IC50 values for each compound were calculated via the XLFit (IDBS Version 5.3.1.3) Add-On to Microsoft Excel using the four parameter fit equation y={A+[(B−A)]/[1+((C/x)^D)]}, which appears as equation number 205 (4 Parameter Logistic Model or Sigmoidal Dose-Response Model) in XLFit. Default constraints were used for each Parameter. IC50 was defined as the compound concentration at which 50% of enzyme activity was inhibited when compared to the no-compound control.
Sequence of human DPP1 enzyme (P53634 25-134): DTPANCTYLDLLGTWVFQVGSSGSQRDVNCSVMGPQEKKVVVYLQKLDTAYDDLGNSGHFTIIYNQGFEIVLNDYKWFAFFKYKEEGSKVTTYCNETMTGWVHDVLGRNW
Sequence of human DPP1 enzyme (P53634 231-394): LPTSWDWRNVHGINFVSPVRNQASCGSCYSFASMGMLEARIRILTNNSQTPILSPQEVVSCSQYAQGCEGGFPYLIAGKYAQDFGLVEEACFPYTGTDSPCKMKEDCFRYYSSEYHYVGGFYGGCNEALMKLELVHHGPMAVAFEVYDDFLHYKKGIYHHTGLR
Sequence of human DPP1 enzyme (P53634 395-463): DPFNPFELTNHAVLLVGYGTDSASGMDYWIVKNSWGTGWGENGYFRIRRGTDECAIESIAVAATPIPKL

`Cn1c(=O)oc2ccc(-c3ccc(C[C@@H](C#N)NC(=O)[C@H]4CCCCCNC4)cc3)cc21`: the IC50 worked out at 49.8 nM.
Under `Cn1c(=O)oc2ccc(-c3ccc(C[C@@H](C#N)NC(=O)[C@@H]4CNC[C@@](C)(O)CO4)c(F)c3)cc21` (single isomer, unassigned) stands 14.1 ± 3 nM; under `Cn1c(=O)oc2ccc(-c3ccc(C[C@@H](C#N)NC(=O)[C@@H]4CNC[C@](C)(O)CO4)c(F)c3)cc21` (single isomer, unassigned), 13.6 ± 2.1 nM; under `Cn1c(=O)oc2ccc(-c3ccc(C[C@@H](C#N)NC(=O)[C@@H]4CNCC(O)(C(F)(F)F)CO4)cc3)cc21` (single isomer, unassigned), 3750 nM.
Under `C=C[C@]1(O)CNC[C@@H](C(=O)N[C@H](C#N)Cc2ccc(-c3ccc4oc(=O)n(C)c4c3)cc2)OC1` (single isomer, unassigned) stands 1470 nM.
Under `Cn1c(=O)oc2ccc(-c3ccc(C[C@@H](C#N)NC(=O)[C@@H]4CNC[C@](O)(CO)CO4)cc3)cc21` (single isomer, unassigned) stands 781 nM.
For the compound `C=CCC1(O)CNC[C@@H](C(=O)N[C@H](C#N)Cc2ccc(-c3ccc4oc(=O)n(C)c4c3)cc2)OC1` (single isomer, unassigned), the IC50 is 1020 nM.
Under `CCC[C@]1(O)CNC[C@@H](C(=O)N[C@H](C#N)Cc2ccc(-c3ccc4oc(=O)n(C)c4c3)cc2)OC1` (single isomer, unassigned) stands greater than 5000 nM; under `CCC[C@@]1(O)CNC[C@@H](C(=O)N[C@H](C#N)Cc2ccc(-c3ccc4oc(=O)n(C)c4c3)cc2)OC1` (single isomer, unassigned), 769 nM; under `CC(C)CO[C@@]1(C)CNC[C@@H](C(=O)N[C@H](C#N)Cc2ccc(-c3ccc4oc(=O)n(C)c4c3)cc2)OC1` (single isomer, unassigned), greater than 5000 nM.
Under `CC(C)CO[C@]1(C)CNC[C@@H](C(=O)N[C@H](C#N)Cc2ccc(-c3ccc4oc(=O)n(C)c4c3)cc2)OC1` (single isomer, unassigned) stands greater than 5000 nM; under `Cn1c(=O)oc2ccc(-c3ccc(C[C@@H](C#N)NC(=O)[C@@H]4CNCC(O)(Cc5ccccn5)CO4)cc3)cc21` (single isomer, unassigned), greater than 5000 nM; under `Cn1c(=O)oc2ccc(-c3ccc(C[C@@H](C#N)NC(=O)[C@@H]4CNC[C@@](O)(CO)CO4)cc3)cc21` (single isomer, unassigned), 234 nM.
Under `Cn1c(=O)oc2ccc(-c3ccc(C[C@@H](C#N)NC(=O)[C@@H]4CNC[C@]5(CCO5)CO4)cc3)cc21` (single isomer, unassigned) stands 729 nM; under `Cn1c(=O)oc2ccc(-c3ccc(C[C@@H](C#N)NC(=O)[C@@H]4CNCC5(CCCO5)CO4)cc3)cc21` (single isomer, unassigned), 95.9 ± 4.4 nM.
Consider `Cn1c(=O)oc2ccc(-c3ccc(C[C@@H](C#N)NC(=O)C4CCCC(O)CNC4)cc3)cc21` (single isomer, unassigned), for which the IC50 stood at 230 nM.
Under `Cn1c(=O)oc2ccc(-c3ccc(C[C@@H](C#N)NC(=O)[C@@H]4CNC[C@@H](O)CCO4)cc3)cc21` (single isomer, unassigned) stands 198 nM.
Under `Cn1c(=O)oc2ccc(-c3ccc(C[C@@H](C#N)NC(=O)[C@@H]4CNCC[C@H](O)CO4)cc3)cc21` (single isomer, unassigned) stands 67.4 nM.
On to `Cn1c(=O)oc2ccc(-c3ccc(C[C@@H](C#N)NC(=O)[C@@H]4CNC[C@@](C)(O)CCO4)cc3)cc21` (single isomer, unassigned), for which the IC50 stood at 243 nM.
Under `Cn1c(=O)oc2ccc(-c3ccc(C[C@@H](C#N)NC(=O)[C@@H]4CNC[C@](C)(O)CCO4)cc3)cc21` (single isomer, unassigned) stands 23.2 ± 2 nM; under `CCO[C@H]1CCO[C@H](C(=O)N[C@H](C#N)Cc2ccc(-c3ccc4oc(=O)n(C)c4c3)cc2)CNC1` (single isomer, unassigned), greater than 5000 nM.
Under `CCO[C@H]1CCNC[C@@H](C(=O)N[C@H](C#N)Cc2ccc(-c3ccc4oc(=O)n(C)c4c3)cc2)OC1` (single isomer, unassigned) stands 457 nM.
Under `Cn1c(=O)oc2ccc(-c3ccc(C[C@@H](C#N)NC(=O)[C@@H]4CNCCC(C)(O)CO4)cc3)cc21` (single isomer, unassigned) stands 2240 nM; under `CCO[C@@H]1CCO[C@H](C(=O)N[C@H](C#N)Cc2ccc(-c3ccc4oc(=O)n(C)c4c3)cc2)CNC1` (single isomer, unassigned), 27 nM.
In the case of `CO[C@H]1CCO[C@H](C(=O)N[C@H](C#N)Cc2ccc(-c3ccc4oc(=O)n(C)c4c3)cc2)CNC1` (single isomer, unassigned), the IC50 came to 1140 nM.
Under `Cn1c(=O)oc2ccc(-c3ccc(C[C@@H](C#N)NC(=O)[C@@H]4CNCCCCO4)cc3)cc21` (single isomer, unassigned) [drawing 513] stands 25.1 ± 3.1 nM.
Under `Cn1c(=O)oc2ccc(-c3ccc(C[C@@H](C#N)NC(=O)[C@@H]4CNC[C@](C)(O)CO4)cc3)cc21` (single isomer, unassigned) [drawing 514] stands 314 ± 201 nM.
Under `CC[C@@]1(O)CNC[C@@H](C(=O)N[C@H](C#N)Cc2ccc(-c3ccc4oc(=O)n(C)c4c3)cc2)OC1` (single isomer, unassigned) [drawing 518] stands 25.1 nM; under `CC[C@]1(O)CNC[C@@H](C(=O)N[C@H](C#N)Cc2ccc(-c3ccc4oc(=O)n(C)c4c3)cc2)OC1` (single isomer, unassigned) [drawing 519], 2740 nM.
For the compound `CC(C)[C@]1(O)CNC[C@@H](C(=O)N[C@H](C#N)Cc2ccc(-c3ccc4oc(=O)n(C)c4c3)cc2)OC1` (single isomer, unassigned) [drawing 520], the IC50 is greater than 5000 nM.
Under `Cn1c(=O)oc2ccc(-c3ccc(C[C@@H](C#N)NC(=O)[C@@H]4CNCC5(CCO5)CO4)cc3)cc21` (single isomer, unassigned) [drawing 530] stands 4.2 ± 0.8 nM.
Under `Cn1c(=O)oc2ccc(-c3ccc(C[C@@H](C#N)NC(=O)[C@@H]4CNC[C@@]5(CCO5)CO4)cc3)cc21` (single isomer, unassigned) [drawing 532] stands 3.04 ± 0.8 nM; under `Cn1c(=O)oc2ccc(-c3ccc(C[C@@H](C#N)NC(=O)[C@@H]4CNCCCCO4)cc3)cc21` (single isomer, unassigned) [drawing 535], 22.3 ± 2 nM.
Under `CN1CC2(C1)OC(=O)c1ccc(-c3ccc(C[C@@H](C#N)NC(=O)[C@@H]4CNCCCCO4)cc3)cc12` (single isomer, unassigned) [drawing 536] stands 30.9 ± 2 nM; under `CCO[C@@H]1CCNC[C@@H](C(=O)N[C@H](C#N)Cc2ccc(-c3ccc4oc(=O)n(C)c4c3)cc2)OC1` (single isomer, unassigned) [drawing 544], 4.91 ± 0.9 nM; under `CO[C@H]1CCNC[C@@H](C(=O)N[C@H](C#N)Cc2ccc(-c3ccc4oc(=O)n(C)c4c3)cc2)OC1` (single isomer, unassigned) [drawing 547], 74.7 nM.
For `Cn1c(=O)oc2ccc(-c3ccc(C[C@@H](C#N)NC(=O)C4CCCCCNC4)c(F)c3)cc21` (single isomer, unassigned) [drawing 548], the IC50 was 15.8 ± 6.8 nM.
Under `Cn1c(=O)oc2ccc(-c3ccc(C[C@@H](C#N)NC(=O)[C@H]4CCCCCNC4)c(F)c3)cc21` (single isomer, unassigned) [drawing 549] stands 140 ± 59.3 nM.
Consider `CCO[C@@]1(C)CNC[C@@H](C(=O)N[C@H](C#N)Cc2ccc(-c3ccc4oc(=O)n(C)c4c3)cc2)OC1` (single isomer, unassigned) [drawing 551], for which the IC50 was greater than 5000 nM.
Under `CCO[C@]1(C)CNC[C@@H](C(=O)N[C@H](C#N)Cc2ccc(-c3ccc4oc(=O)n(C)c4c3)cc2)OC1` (single isomer, unassigned) [drawing 552] stands 1680 nM; under `CO[C@@H]1CCO[C@H](C(=O)N[C@H](C#N)Cc2ccc(-c3ccc4oc(=O)n(C)c4c3)cc2)CNC1` (single isomer, unassigned) [drawing 553], 6.82 ± 0.5 nM; under `CO[C@H]1CCNC[C@@H](C(=O)N[C@H](C#N)Cc2ccc(-c3ccc4oc(=O)n(C)c4c3)cc2)OC1` (single isomer, unassigned) [drawing 554], 17.4 ± 6 nM.
With `Cn1c(=O)oc2ccc(-c3ccc(C[C@@H](C#N)NC(=O)C4CCCCCNC4)cc3)cc21` (stereo partly shown) [I-A], the IC50 turned out to be 72.6 nM.
Under `Cn1c(=O)oc2ccc(-c3ccc(C[C@@H](C#N)NC(=O)C4CCCCCNC4)cc3)cc21` (stereo partly shown) [drawing 511] stands 85.6 ± 19.5 nM; under `Cn1c(=O)oc2ccc(-c3ccc(C[C@@H](C#N)NC(=O)C4CCCCCNC4)cc3)cc21` (stereo partly shown) [drawing 512], 61.3 ± 9.9 nM; under `Cn1c(=O)oc2ccc(-c3ccc(C[C@@H](C#N)NC(=O)[C@@H]4CCCCCNC4)cc3)cc21` [drawing 550], 603 nM.
